According to ChEMBL document CHEMBL3785005, “Novel triazole hybrids of myrrhanone C, a natural polypodane triterpene: Synthesis, cytotoxic activity and cell based studies” (Eur J Med Chem, 2016):
Calls of active or inactive are those of the source. The calls are words filed in the database; no cut-off is given here.

Assays:
[1] = tested on: MCF7; assay: Cytotoxicity against human MCF7 cells assessed as cell viability after 48 hrs by MTT assay; assay type: functional, cell-based; conditions: MCF7, 48 h
[2] = tested on: A549; assay: Cell cycle arrest in human A549 cells assessed as accumulation at sub G1 phase at 5 uM after 48 hrs by propidium iodide staining based flow cytometry (reference value: 0.76%); assay type: functional
[3] = tested on: A549; assay: Induction of apoptosis in human A549 cells assessed as necrotic cells at 10 uM after 48 hrs by Annexin V-FITC/propidium iodide staining based flow cytometry (reference value: 1.68%); assay type: functional
[4] = tested on: A549; assay: Induction of apoptosis in human A549 cells assessed as early apoptotic cells at 5 uM after 48 hrs by Annexin V-FITC/propidium iodide staining based flow cytometry (reference value: 5.19%); assay type: functional
[5] = tested on: A549; assay: Cell cycle arrest in human A549 cells assessed as accumulation at G2/M phase at 10 uM after 48 hrs by propidium iodide staining based flow cytometry (reference value: 14.07%); assay type: functional
[6] = tested on: A549; assay: Cell cycle arrest in human A549 cells assessed as accumulation at G0/G1 phase at 10 uM after 48 hrs by propidium iodide staining based flow cytometry (reference value: 80.19%); assay type: functional
[7] = tested on: A549; assay: Induction of apoptosis in human A549 cells assessed as early apoptotic cells at 10 uM after 48 hrs by Annexin V-FITC/propidium iodide staining based flow cytometry (reference value: 5.19%); assay type: functional
[8] = tested on: A549; assay: Induction of apoptosis in human A549 cells assessed as late apoptotic cells at 10 uM after 48 hrs by Annexin V-FITC/propidium iodide staining based flow cytometry (reference value: 5.19%); assay type: functional
[9] = tested on: HeLa; assay: Cytotoxicity against human HeLa cells assessed as cell viability after 48 hrs by MTT assay; assay type: functional, cell-based
[10] = tested on: A549; assay: Induction of apoptosis in human A549 cells assessed as mitochondrial membrane potential at 5 uM after 48 hrs by JC-1 staining based flow cytometry (reference value: 92.5%); assay type: functional
[11] = tested on: A549; assay: Induction of apoptosis in human A549 cells assessed as necrotic cells at 5 uM after 48 hrs by Annexin V-FITC/propidium iodide staining based flow cytometry (reference value: 1.68%); assay type: functional
[12] = tested on: A549; assay: Cell cycle arrest in human A549 cells assessed as accumulation at S phase at 10 uM after 48 hrs by propidium iodide staining based flow cytometry (reference value: 3.51%); assay type: functional
[13] = tested on: A549; assay: Induction of apoptosis in human A549 cells assessed as viable cells at 10 uM after 48 hrs by Annexin V-FITC/propidium iodide staining based flow cytometry (reference value: 87.93%); assay type: functional; conditions: A549, 48 h, read-out: Activity
[14] = tested on: A549; assay: Cell cycle arrest in human A549 cells assessed as accumulation at G2/M phase at 5 uM after 48 hrs by propidium iodide staining based flow cytometry (reference value: 14.07%); assay type: functional
[15] = Cytotoxicity against human DU145 cells assessed as cell viability after 48 hrs by MTT assay; assay type: functional, cell-based; conditions: DU-145, 48 h
[16] = tested on: A549; assay: Induction of apoptosis in human A549 cells assessed as presence of apoptotic bodies at 5 to 10 uM after 48 hrs by Hoechst 33258 staining based fluorescence microscopic analysis; assay type: functional, cell-based
[17] = tested on: A549; assay: Cell cycle arrest in human A549 cells assessed as accumulation at sub G1 phase at 10 uM after 48 hrs by propidium iodide staining based flow cytometry (reference value: 0.76%); assay type: functional
[18] = tested on: A549; assay: Induction of apoptosis in human A549 cells assessed as nuclear fragmentation at 5 to 10 uM after 48 hrs by Hoechst 33258 staining based fluorescence microscopic analysis; assay type: functional, cell-based
[19] = tested on: HepG2; assay: Cytotoxicity against human HepG2 cells assessed as cell viability after 48 hrs by MTT assay; assay type: functional, cell-based; conditions: HepG2, 48 h
[20] = tested on: A549; assay: Cell cycle arrest in human A549 cells assessed as accumulation at S phase at 5 uM after 48 hrs by propidium iodide staining based flow cytometry (reference value: 3.51%); assay type: functional
[21] = tested on: A549; assay: Cell cycle arrest in human A549 cells assessed as accumulation at G0/G1 phase at 5 uM after 48 hrs by propidium iodide staining based flow cytometry (reference value: 80.19%); assay type: functional
[22] = tested on: A549; assay: Induction of apoptosis in human A549 cells assessed as cytoplasmic condensation at 5 to 10 uM after 48 hrs by Hoechst 33258 staining based fluorescence microscopic analysis; assay type: functional, cell-based
[23] = tested on: A549; assay: Cytotoxicity against human A549 cells assessed as cell viability after 48 hrs by MTT assay; assay type: functional, cell-based; conditions: A549, 48 h
[24] = tested on: A549; assay: Induction of apoptosis in human A549 cells assessed as viable cells at 5 uM after 48 hrs by Annexin V-FITC/propidium iodide staining based flow cytometry (reference value: 87.93%); assay type: functional; conditions: A549, 48 h, read-out: Activity
[25] = tested on: A549; assay: Induction of apoptosis in human A549 cells assessed as late apoptotic cells at 5 uM after 48 hrs by Annexin V-FITC/propidium iodide staining based flow cytometry (reference value: 5.19%); assay type: functional
[26] = tested on: A549; assay: Induction of apoptosis in human A549 cells assessed as mitochondrial membrane potential at 10 uM after 48 hrs by JC-1 staining based flow cytometry (reference value: 92.5%); assay type: functional

| Structure (SMILES) | IC50 [1] | Activity [2] | Activity [3] | Activity [4] | Activity [5] | Activity [6] | Activity [7] | Activity [8] | IC50 [9] | Activity [10] | Activity [11] | Activity [12] | viability at 10 µM [13] | Activity [14] | IC50 [15] | Activity [16] | Activity [17] | Activity [18] | IC50 [19] | Activity [20] | other results |
| --- | --- | --- | --- | --- | --- | --- | --- | --- | --- | --- | --- | --- | --- | --- | --- | --- | --- | --- | --- | --- | --- |
| COc1cc(OC)c(-n2cc(CO/N=C3\CC[C@]4(C)[C@@H](CC/C=C(\C)CC/C=C(\C)CCC=C(C)C)[C@](C)(O)CC[C@H]4C3(C)C)nn2)c(OC)c1 | 14.7 µM | 0.73% | 1.8% | 4.18% | 31.32% | 65.77% | 5% | 15.83% | 12.8 µM | 88.7% | 1.3% | 0.36% | 77.4% | 18.52% | 11.1 µM | Active | 1.14% | Active | 14.1 µM | 3% | Activity [21]: 76.47%; Activity [22]: Active; IC50 [23]: 8.12 µM; viability at 5 µM [24]: 86%; Activity [25]: 8.56%; Activity [26]: 84.1% |
| CC(C)=CCC/C(C)=C/CC/C(C)=C/CC[C@@H]1[C@@]2(C)CC/C(=N\OCc3cn(-c4ccccc4)nn3)C(C)(C)[C@@H]2CC[C@@]1(C)O | 9.59 µM | 0.9% | 1.43% | 5.23% | 36.97% | 60.11% | 5.4% | 16.28% | 7.76 µM | 88.1% | 0.81% | 0.34% | 76.9% | 20% | 8.83 µM | Active | 1.02% | Active | 9.52 µM | 2.86% | Activity [21]: 75.14%; Activity [22]: Active; IC50 [23]: 6.16 µM; viability at 5 µM [24]: 84.4%; Activity [25]: 9.59%; Activity [26]: 83.5% |
